From BindingDB's records for patent US11752138 (Vanderbilt University, 2023)

Test: Inhibition of LDHB Activity
Experimental: This example describes a human LDHB biochemical assay employed in the characterization of a compound of Formula I in an embodiment of the dislcosure.Test compounds were placed in a Greiner Bio-One (Monroe, N.C.) 1536-well black solid bottom assay plate. 200 mM Tris HCl, pH 7.4, 100 μM EDTA and 0.01% TWEEN-20 , final concentration, was used as the assay buffer. The LDHB reagent was 2 nM Human LDHB (Meridian Life Science, Inc., Memphis, Tenn.), final concentration, in assay buffer. The substrate reagent was 0.13 mM NADH and 0.16 mM sodium pyruvate, final concentration, in assay buffer. The resazurin/diaphorase coupling reagent was 0.037 mM resazurin and 0.133 mg/mL diaphorase, final concentration, in assay buffer.

Row | Compound | IC50 [nM]
1 | Cc1ccc(C#Cc2cc(-c3nn(-c4nc(C(=O)O)cs4)c(CC4CC4)c3Cc3ccc(S(N)(=O)=O)c(F)c3)ccc2F)s1 [US11752138, Compound 249] | < 100
2 | CC(C)N1CC2(CN(c3cc(-c4nn(-c5nc(C(=O)O)cs5)c(CC5CC5)c4Cc4ccc(S(N)(=O)=O)c(F)c4)ccc3F)C2)C1 [US11752138, Compound 158] | < 100
3 | COc1ccc(-c2cccc(-c3nn(-c4nc(C(=O)O)cs4)c(CC4CC4)c3Cc3ccc(S(N)(=O)=O)c(F)c3)c2)cc1C [US11752138, Compound 165] | < 100
4 | Cc1ccsc1C#Cc1cccc(-c2nn(-c3nc(C(=O)O)cs3)c(CC3CC3)c2Cc2ccc(S(N)(=O)=O)c(F)c2)c1 [US11752138, Compound 120] | < 100
5 | NS(=O)(=O)c1ccc(Cc2c(-c3ccc(F)c(NC(=O)c4ccccc4)c3)nn(-c3nc(C(=O)O)cs3)c2CC2CC2)cc1F [US11752138, Compound 152] | < 100
6 | N#Cc1ccc(-c2cccc(-c3nn(-c4nc(C(=O)O)cs4)c(CC4CC4)c3Cc3ccc(S(N)(=O)=O)c(F)c3)c2)cc1 [US11752138, Compound 176] | < 100
7 | Cc1ccc(-c2cc(-c3nn(-c4nc(C(=O)O)cs4)c(CC4CC4)c3Cc3ccc(S(N)(=O)=O)c(F)c3)ccc2F)cc1F [US11752138, Compound 137] | < 100
8 | COC1CC=C(c2cc(-c3nn(-c4nc(C(=O)O)cs4)c(CC4CC4)c3Cc3ccc(S(N)(=O)=O)c(F)c3)ccc2F)CC1 (configuration not stated) [US11752138, Compound 104] | < 100
9 | Cc1ncc(-c2cc(-c3nn(-c4nc(C(=O)O)cs4)c(CC4CC4)c3Cc3ccc(S(N)(=O)=O)c(F)c3)ccc2F)[nH]1 [US11752138, Compound 161] | < 100
10 | Cc1ncc(C#Cc2cc(-c3nn(-c4nc(C(=O)O)cs4)c(CC4CC4)c3Cc3ccc(S(N)(=O)=O)c(F)c3)ccc2F)s1 [US11752138, Compound 111] | < 100
11 | Cc1ccc(C#Cc2cccc(-c3nn(-c4nc(C(=O)O)cs4)c(CC4CC4)c3Cc3ccc(S(N)(=O)=O)c(F)c3)c2)o1 [US11752138, Compound 129] | < 100
12 | Cc1ccc(C#Cc2cccc(-c3nn(-c4nc(C(=O)O)cs4)c(CC4CC4)c3Cc3ccc(S(N)(=O)=O)c(F)c3)c2)s1 [US11752138, Compound 112] | < 100
13 | CC(C)c1cccc(-c2cccc(-c3nn(-c4nc(C(=O)O)cs4)c(CC4CC4)c3Cc3ccc(S(N)(=O)=O)c(F)c3)c2)c1 [US11752138, Compound 173] | < 100
14 | Cc1cnc(C#Cc2cc(-c3nn(-c4nc(C(=O)O)cs4)c(CC4CC4)c3Cc3ccc(S(N)(=O)=O)c(F)c3)ccc2F)s1 [US11752138, Compound 114] | < 100
15 | CC(=O)c1cc(-c2nn(-c3nc(C(=O)O)cs3)c(CC3CC3)c2Cc2ccc(S(N)(=O)=O)c(F)c2)ccc1F [US11752138, Compound 140] | < 100
16 | Cc1ccc(C2CC2c2cccc(-c3nn(-c4nc(C(=O)O)cs4)c(CC4CC4)c3Cc3ccc(S(N)(=O)=O)c(F)c3)c2)s1 (configuration not stated) [US11752138, Compound 130] | < 100
17 | NS(=O)(=O)c1ccc(Cc2c(-c3ccc(F)c(-c4cc(F)cc(F)c4)c3)nn(-c3nc(C(=O)O)cs3)c2CC2CC2)cc1F [US11752138, Compound 156] | < 100

Next, values leading:

Row | IC50 [nM] | Compound
18 | < 100 | Cc1ccc(C#Cc2cccc(-c3nn(-c4nc(C(=O)O)cs4)c(CCC4CC4)c3Cc3ccc(S(N)(=O)=O)c(F)c3)c2)s1 [US11752138, Compound 115]
19 | < 100 | Cc1ccc(C#Cc2cccc(-c3nn(-c4nc(C(=O)O)cs4)c(CC4(C)CC4)c3Cc3ccc(S(N)(=O)=O)c(F)c3)c2)s1 [US11752138, Compound 123]
20 | < 100 | COc1ccc(-c2cc(-c3nn(-c4nc(C(=O)O)cs4)c(CC4CC4)c3Cc3ccc(S(N)(=O)=O)c(F)c3)ccc2F)cc1C [US11752138, Compound 150]
21 | < 100 | NS(=O)(=O)c1ccc(Cc2c(-c3cccc(-c4ccc(Cl)c(F)c4)c3)nn(-c3nc(C(=O)O)cs3)c2CC2CC2)cc1F [US11752138, Compound 164]
22 | < 100 | NS(=O)(=O)c1ccc(Cc2c(-c3cccc(-c4cccc(Cl)c4)c3)nn(-c3nc(C(=O)O)cs3)c2CC2CC2)cc1F [US11752138, Compound 175]
23 | < 100 | Cc1cnc(C#Cc2cccc(-c3nn(-c4nc(C(=O)O)cs4)c(CC4CC4)c3Cc3ccc(S(N)(=O)=O)c(F)c3)c2)o1 [US11752138, Compound 122]
24 | < 100 | CC1(C)CC=C(c2cc(-c3nn(-c4nc(C(=O)O)cs4)c(CC4CC4)c3Cc3ccc(S(N)(=O)=O)c(F)c3)ccc2F)CC1 [US11752138, Compound 106]
25 | < 100 | Cc1ccc(/C=C/c2cccc(-c3nn(-c4nc(C(=O)O)cs4)c(CC4CC4)c3Cc3ccc(S(N)(=O)=O)c(F)c3)c2)s1 [US11752138, Compound 119]
26 | < 100 | NS(=O)(=O)c1ccc(Cc2c(-c3ccc(F)c(-c4ncc[nH]4)c3)nn(-c3nc(C(=O)O)cs3)c2CC2CC2)cc1F [US11752138, Compound 159]
27 | < 100 | Cc1ccc(C#Cc2cc(-c3nn(-c4nc(C(=O)O)cs4)c(CCC4CC4)c3Cc3ccc(S(N)(=O)=O)c(F)c3)ccc2F)s1 [US11752138, Compound 113]
28 | < 100 | CC(C)c1ccc(-c2cccc(-c3nn(-c4nc(C(=O)O)cs4)c(CC4CC4)c3Cc3ccc(S(N)(=O)=O)c(F)c3)c2)cc1 [US11752138, Compound 169]
29 | < 100 | CN(C)c1ccc(-c2cccc(-c3nn(-c4nc(C(=O)O)cs4)c(CC4CC4)c3Cc3ccc(S(N)(=O)=O)c(F)c3)c2)cc1 [US11752138, Compound 178]
30 | < 100 | NS(=O)(=O)c1ccc(Cc2c(-c3cccc(C#Cc4ccc(C(F)F)s4)c3)nn(-c3nc(C(=O)O)cs3)c2CC2CC2)cc1F [US11752138, Compound 121]
31 | < 100 | NS(=O)(=O)c1ccc(Cc2c(-c3cccc(C#Cc4ccc(Cl)s4)c3)nn(-c3nc(C(=O)O)cs3)c2CC2CC2)cc1F [US11752138, Compound 118]
32 | < 100 | NS(=O)(=O)c1ccc(Cc2c(-c3cccc(-c4ccc(Cl)cc4)c3)nn(-c3nc(C(=O)O)cs3)c2CC2CC2)cc1F [US11752138, Compound 166]
33 | < 100 | COc1cc(OC)cc(-c2cc(-c3nn(-c4nc(C(=O)O)cs4)c(CC4CC4)c3Cc3ccc(S(N)(=O)=O)c(F)c3)ccc2F)c1 [US11752138, Compound 153]
34 | < 100 | Cc1cc(C)c(C#Cc2cccc(-c3nn(-c4nc(C(=O)O)cs4)c(CC4CC4)c3Cc3ccc(S(N)(=O)=O)c(F)c3)c2)s1 [US11752138, Compound 125]
35 | < 100 | Cc1ccc(-c2cccc(-c3nn(-c4nc(C(=O)O)cs4)c(CC4CC4)c3Cc3ccc(S(N)(=O)=O)c(F)c3)c2)cc1F [US11752138, Compound 167]
36 | < 100 | CC1CCCC=C1c1cc(-c2nn(-c3nc(C(=O)O)cs3)c(CC3CC3)c2Cc2ccc(S(N)(=O)=O)c(F)c2)ccc1F (configuration not stated) [US11752138, Compound 103]
37 | < 100 | CC1CC=C(c2cc(-c3nn(-c4nc(C(=O)O)cs4)c(CC4CC4)c3Cc3ccc(S(N)(=O)=O)c(F)c3)ccc2F)CC1 (configuration not stated) [US11752138, Compound 101]
